Type in all cases: in vivo, human
Experiment [1] deals with urinary dopamine. In words: Urinary dopamine monoamine level assay (RIA, per gram of creatinine) under amino acid precursor dosing. Here is the method:
(§1) For monoamine testing of monoamines of The System, urine is collected approximately 5 to 6 hours prior onset of the sleep cycle and just prior to any amino acid dosing the subject may or may not be taking close to that time period. Once the urine sample is obtained, laboratory assay of the monoamine of The System are performed as well as a urinary creatinine assay and the results are reported in terms of micrograms of monoamine per gram of creatinine.
(§2) Referring now to the data summarized herein, the data is from a database of subjects who have been diagnosed by a licensed healthcare provider as having one or more monoamine dysfunction(s) associated with the serotonin and/or catecholamine systems. The database fields include: • 1. The monoamine diagnosis made by a licensed healthcare provider; • 2. Amino acid dosing of amino acid precursors of the serotonin and dopamine monoamines; • 3. Laboratory assay of urinary serotonin and catecholamine monoamine levels; • 4. The subject's sex; • 5. The subject's age and date of birth; • 6. The subject's weight; • 7. The subject's height; • 8. Any allergies the subject might have; • 9. Any medications (prescription and/or non-prescription) with dosing that the subject might be taking; • 10. Type of license held by the caregiver; and • 11. The subject's state and zip code of residence.
(§3) Also referring to the summarized date, the monoamine analysis performed was subjected to the following criteria: • 1. Urinary monoamine reference ranges reported by the laboratory were determined after precision and accuracy studies had validated initial calibration results; • 2. The reported reference ranges of the laboratory performing the assays were within ±2 standard deviations of the mean for the general population used in calibration; • 3. The reported reference ranges are for adults (18 years of age and older); • 4. Urinary monoamine samples were collected at least 3 to 4 hours after a subject took a dose of amino acid precursors; • 5. Urinary monoamine samples were collected 5 to 6 hours before the onset of the sleep cycle (bed time); • 6. […]

Experiment [2] has as its system urinary serotonin or dopamine. In words: Phase (1, 2, 3) of urinary monoamine response to amino acid precursor dosing, from serial urinary assays. The conditions noted are these: for amino acid dosing change required to move between phase 1 and phase 3, much larger changes / amino acid dosing change that moved subjects between phase 1 and phase 3, very small changes: 5-HTP with L-Tyrosine or L-Dopa; for amino acid dosing change required to move between phase 1 and phase 3, much larger changes: other subjects; for amino acid dosing change that moved subjects between phase 1 and phase 3, very small changes: some observed subjects. The text has this:
However, according to certain embodiments, the predictability of determining an individual or group response of urinary serotonin and/or dopamine monoamine levels between two assays is possible when it is properly determined that the subject is in one of three phases of urinary monoamine response to amino acid precursor administration. As identified above, there are at least three phases (referred to as phase 1, phase 2, and phase 3) of urinary monoamine response to amino acid precursor administration. In phase 1, the urinary monoamine level drops as the total amino acid precursor dosing of serotonin and dopamine is increased. In phase 1, the urinary monoamine level increases as the total amino acid precursor dosing of serotonin and dopamine is decreased. In phase 2, the urinary monoamine level remains below the therapeutic range and relatively constant as the total amount of monoamine amino acid precursor dosing is increased or decreased. In order for urinary monoamines to be in phase 2, subtherapeutic urinary monoamine levels must exist. In phase 3, the urinary monoamine level increases as the total amount of amino acid precursor dosing is increased. In phase 3, the urinary monoamine level decreases as the total amount of amino acid precursor dosing is decreased.
In certain embodiments, the phase of the urinary monoamines in response to amino acid therapy can properly be determined by obtaining two laboratory assays on two separate days with the subject taking a different amino acid dosing of serotonin and catecholamine precursors for each test. In general, at least 7 days must elapse between amino acid dosing changes and laboratory assay, but shorter time periods may be indicated at the decision of the individual obtaining the test. The laboratory assays should also be performed on samples that are collected at least 3 to 5 days after the last change in amino acid precursor dosing or start in amino acid precursor dosing of the serotonin and dopamine monoamines. If during the first assay the subject was taking supplemental amino acid precursors of serotonin and dopamine monoamines, then it is preferable that the second assay is performed after the dosing of the supplemental amino acid precursors has changed. The change in supplemental amino acid precursor may be for the serotonin monoamine and/or the dopamine monoamine. If both of the supplemental amino acid precursors of the serotonin and dopamine monoamines are changed, it is preferable that the dosing of both supplemental amino acid precursors is increased or the dosing of both supplemental amino acid precursors is decreased. The subject also should have not missed any dosing of amino acid precursors in the 3 to 5 day period before the sample is collected.
1. Phase 1: • a. Where an increase in amino acid precursor dosing of either the serotonin amino acid precursor and/or the dopamine amino acid precursor causes a decrease in the second assay urinary serotonin or dopamine monoamine levels. • b. Where a decrease in amino acid dosing of either the serotonin amino acid precursor and/or the dopamine amino acid precursor causes an increase in the second assay urinary serotonin or dopamine monoamine levels.
2. Phase 2: • a. Where urinary serotonin and/or dopamine monoamine levels are less than the therapeutic range.
3. Phase 3: • a. Where an increase in amino acid precursor dosing of either the serotonin amino acid precursor and/or the dopamine amino acid precursor causes an increase in the second assay urinary serotonin or dopamine monoamine levels. • b. Where a decrease in the amino acid precursor dosing of either the serotonin amino acid precursor and/or the dopamine amino acid precursor causes a decrease in the second assay urinary serotonin or dopamine monoamine levels.

The subject of experiment [3] is urinary serotonin. In words: Urinary serotonin monoamine level assay (ELISA, per gram of creatinine) under amino acid precursor dosing. On the procedure:
as §1, §2, §3

Bounds are passed on as bounds.

As for `N[C@@H](Cc1c[nH]c2ccc(O)cc12)C(=O)O` [5-HTP, 5-hydroxytryptophan], the “excretion of dopamine in phase 3 by the kidneys” value in experiment [1] (administration of 5-HTP alone) is “marked increase”. Further, in experiment [2], the “amino acid dosing change required to move between phase 1 and phase 3, much larger changes” value (“amino acid dosing change required” for short) was 900 mg; the “amino acid dosing change that moved subjects between phase 1 and phase 3, very small changes” value came out at 37.5 mg. Besides, the “5-HTP dosing giving phase 3 therapeutic urinary serotonin level” value in experiment [2] (Example 4, final assay, tyrosine increased) is given as 150 mg per day. In addition, the “change of 5-HTP dosing that moved urinary serotonin levels from phase 3 to phase 1” value in experiment [2] (Example 6, between test 1 and test 2) was 150 mg per day. In addition, the “daily dosing at which the phase 2/phase 3 inflection point occurs” value in experiment [2] (dose-response curve of one embodiment, urinary serotonin, balanced amino acids) is listed as “approximately 800 milligrams per day”. Moreover, the “daily dosing at the phase 2/phase 3 inflection point, low-dose subjects” value in experiment [2] (subjects who experience the inflection point at low dose) came out at 50 milligrams per day. Besides, the “daily dosing at the phase 2/phase 3 inflection point, high-dose subjects” value in experiment [2] (subjects without inflection point until this dose per day) is listed as 1,500 milligrams.
Take `N[C@@H](Cc1ccc(O)cc1)C(=O)O` [L-Tyrosine]: in experiment [3] (Example 1, one subject, increase in tyrosine), the “urinary serotonin levels on the second laboratory assay” value was “marked increase”. In experiment [1] (Example 1, one subject, increase in tyrosine, dopamine subtherapeutic), the “change in urinary dopamine levels” value was “without much change”. For the same compound, in experiment [1] (phase 3, tyrosine as dopamine precursor), the “highest urinary dopamine established in phase 3 by administration of tyrosine” value is recorded as ≤ 475 micrograms of dopamine per gram of creatinine. Moreover, in experiment [2], the “amino acid dosing change required” value is 5,000 mg; the “amino acid dosing change that moved subjects between phase 1 and phase 3, very small changes” value was 375 mg.
In the case of `N[C@@H](Cc1ccc(O)c(O)c1)C(=O)O` [L-dopa, 1-3,4-dihydroxyphenylalanine, reference compound], the urinary serotonin level result in experiment [3] (Example 2, one subject, increase in L-dopa between first and third assay) is “increased”. Also, the “urinary excretion of serotonin in phase 3” value in experiment [3] (addition of unopposed L-dopa) is reported as “increases markedly”. Also, in experiment [2], the “amino acid dosing change required” value turned out to be 900 mg; the “amino acid dosing change that moved subjects between phase 1 and phase 3, very small changes” value is recorded as 60 mg.

The record behind these values is US20090311795A1, “BILATERAL CONTROL OF FUNCTIONS TRADITIONALLY REGULATED BY ONLY SEROTONIN OR ONLY DOPAMINE” (priority 2002, published 2009).
